From paper PMC6225165, “Design and Synthesis of Novel Dehydroepiandrosterone Analogues as Potent Antiproliferative Agents” (Molecules : A Journal of Synthetic Chemistry and Natural …, 2018)
Read-outs that look alike come from different tables or passages of the source.

Assays:
HCT116 [1] = tested on: HCT116; design: method as in PMID 26854375; settings: literature lead, Figure 1; cited from earlier work
A549 [2] = settings: literature lead, Figure 1; cited from earlier work
[3] = tested on: human normal liver (L02) cells; assay: MTT assay on normal cell line L02; type: cell-based; settings: for inhibition at 100 µM / IC50 / % Growth Inhibition at 100 μM L02: 48 h, MTT; for inhibition at 100 µM / % Growth Inhibition at 100 μM L02: normal cells; for inhibition at 100 µM: read-out: % Growth Inhibition at 100 μM L02; for IC50: normal cell line
HepG-2 = assay: MTT antiproliferative assay, HepG-2; type: cell-based, human; settings: for inhibition at 100 µM / IC50 / % Growth Inhibition at 100 μM HepG-2: 48 h, MTT; for inhibition at 100 µM: read-out: % Growth Inhibition at 100 μM HepG-2
Description: (§1) The antiproliferative activity of the title compounds against the panel of six different human cancer cell lines, viz. lung (A549), cervix (HeLa), liver (HepG-2), liver (BEL7402), colorectal (HCT116), and breast (MCF-7) cell lines, was evaluated using a standard MTT-based colorimetric assay. All cell lines were obtained from the Key Laboratory of Natural Resources and Functional Molecules of the Changbai Mountain (Yanbian University) and maintained in Dulbecco’s modified Eagle’s medium (DMEM) and RPMI Media 1640 (RPMI1640), supplemented with 10% foetal bovine serum (FBS) at 37 °C in a humidified atmosphere containing 5% CO2.
(§2) Cells were plated in 96-well plates at appropriate densities to ensure exponential growth throughout the experimental period (9 × 10^3 cells per well), and then allowed to adhere for 24 h. Cells were then treated for 48 h with each compound. After 48 h of incubation, 10 μL of MTT solution were added to each well to a final concentration of 2 mg·mL^−1. Plates were then incubated for a further 4 h. After incubation, the MTT solution was removed and 150 μL of DMSO were added to each well for coloration. The plates were shaken vigorously for 10 min at room temperature to ensure complete solubilisation. The optometric density (OD) was read on a microplate reader (EL × 800, BioTek, Highland Park, Winooski, VT, USA) at 492 nm, and the data were subsequently analysed. The percentage of cell growth inhibition was calculated from the following equation:Inhibitory rate (%) = [1 − (ODtreated − ODblank)/(ODcontrol − ODblank)] × 100.
(§3) To obtain the antiproliferative activity of compounds 2a–2w, the compounds were selected in the same way with four serial concentrations (1, 10, 50 and 100 μM) of those compounds. The optometric density (OD) reading was then used to calculate the IC50.

A549 [4] = assay: MTT antiproliferative assay, A549; type: cell-based, human; settings: 48 h, MTT; for inhibition at 100 µM: read-out: % Growth Inhibition at 100 μM A549
Description: as §1, §2, §3

BEL7402 = assay: MTT antiproliferative assay, BEL7402; type: cell-based, human; settings: 48 h, MTT; for inhibition at 100 µM: read-out: % Growth Inhibition at 100 μM BEL7402
Description: as §1, §2, §3

HCT116 [5] = assay: MTT antiproliferative assay, HCT116; type: cell-based, human; settings: for inhibition at 100 µM / IC50 / % Growth Inhibition at 100 μM HCT116: 48 h, MTT; for inhibition at 100 µM: read-out: % Growth Inhibition at 100 μM HCT116
Description: as §1, §2, §3

Hela = assay: MTT antiproliferative assay, Hela; type: cell-based, human; settings: 48 h, MTT; for inhibition at 100 µM: read-out: % Growth Inhibition at 100 μM Hela
Description: as §1, §2, §3

HepG-2 cells [6] = assay: Apoptosis analysis by flow cytometry (annexin V-FITC/PI); type: cell-based, human; settings: 48 h, control 13.65%
Description: Apoptosis was detected using an Apoptosis Detection Kit (Invitrogen, Eugene, OR, USA). In brief, cells were cultured in […] (5.0 × 10^5 cells per well) and incubated at 37 °C for 12 h. Cells with exponential growth were then incubated with compound 2n at different concentrations (5, 10 and 20 μM). Following 48 h of incubation, the cells were collected, washed twice with PBS and once with 1binding buffer, and then stained with […] of annexin V-FITC and […] of PI (5 mg·mL^−1) in 1 × binding buffer for 30 min at 20 °C in the dark. Apoptotic cells were enumerated using a FACSCalibur flow cytometer with Cell Quest software (Becton–Dickinso, Franklin Lakes, NJ, USA).

HepG-2 cells [7] = assay: Cell cycle analysis by flow cytometry (PI); type: cell-based, human; settings: 48 h, control 11.47%
Description: HepG-2 cells were plated in […] (5.0 × 10^5 cells per well) and incubated at 37 °C for 12 h. Exponentially growing cells were then incubated with compound 2n at different concentrations (5, 10 and 20 μM). After 48 h, untreated cells (control) or cells treated with compound 2n were centrifuged at 1000 rpm (177 g) for 10 min, and then fixed in 70% ethanol at −20 °C for at least 24 h. The cells were subsequently resuspended in phosphate-buffered saline (PBS) containing 0.1mg mL^−1 RNase A and 5 μg·mL^−1 propidium iodide (PI). The cellular DNA content for the cell cycle distribution analysis was measured by flow cytometry using a FACS Calibur flow cytometer with Cell Quest software (Becton-Dickinson, Franklin Lakes, NJ, USA), plotting at least 30,000 events per sample. The percentage of cells in the G1, S and G2 phases of the cell cycle were determined using the ModFit LT V4.0 software package (Verity Software, Topsham, ME, USA).

MCF-7 = assay: MTT antiproliferative assay, MCF-7; type: cell-based, human; settings: for inhibition at 100 µM / IC50 / % Growth Inhibition at 100 μM MCF-7: 48 h, MTT; for inhibition at 100 µM: read-out: % Growth Inhibition at 100 μM MCF-7
Description: as §1, §2, §3

KB = tested on: KB; design: method as in PMID 23635011; settings: literature lead, Figure 1; cited from earlier work
AGS = settings: literature lead, Figure 1; cited from earlier work
[8] = IC50 on normal cells (L02)/IC50 on tumour cells

In the case of `CC1CCC2(C(=O)O)CCC3(C)C(=CCC4C5(C)CC(=Cc6cc(O)ccc6O)C(=O)C(C)(C)C5CCC43C)C2C1C` (stereo not drawn) [Compound C], the IC50 (HCT116 [1]) is listed as < 0.1 µM.

In the case of `COc1ccccc1-n1cc(COC(=O)C23CCC(C)C(C)C2C2=CCC4C5(C)CCC(=O)C(C)(C)C5CCC4(C)C2(C)CC3)nn1` (stereo not drawn) [Compound A], the IC50 (A549 [2]) is given as < 0.1 µM.

In the case of `CC12CCC3C(CC=C4CC(O)CCC43C)C1C/C(=C\c1cn(-c3ccc(I)cc3)nn1)C2=O` (stereo not drawn) [Compound 2n, (E)-3-hydroxy-16-((1-(4-iodophenyl)-1H-1,2,3-triazol-4-yl)methylene)-10,13-dimethyl-1,3,4,7,8,9,10,11,12,13,15,16-dodecahydro-2H-cyclopenta[a]phenanthren-17(14H)-one], the inhibition at 100 µM ([3]; Homo sapiens, L02) is reported as 34.2%, the IC50 ([3]; Homo sapiens, L02) is reported as > 100 µM and the “toxicity in human normal liver (L02) cells” value ([3]; in words) is reported as “not toxic”. For the same compound, the inhibition at 100 µM (HepG-2; Homo sapiens, HepG2) was 83%, the IC50 (HepG-2; Homo sapiens, HepG2) was 9.1 µM and the “Selectivity Index HepG-2” value (HepG-2; [8]) was >10.99. The inhibition at 100 µM (A549 [4]; Homo sapiens, A549) was 46.8%, the IC50 (A549 [4]; Homo sapiens, A549) was > 100 µM and the inhibition at 100 µM (BEL7402; Homo sapiens, Bel-7402) was < 5%. The IC50 (BEL7402; Homo sapiens, Bel-7402) was > 100 µM, the inhibition at 100 µM (HCT116 [5]; Homo sapiens, HCT-116) was 65.5% and the IC50 (HCT116 [5]; Homo sapiens, HCT-116) was 31 µM. The “Selectivity Index HCT116” value (HCT116 [5]; [8]) was >3.22, the IC50 (Hela; Homo sapiens, HeLa) was > 100 µM and the inhibition at 100 µM (Hela; Homo sapiens) was 17.3%. The “percentage of total apoptotic cells (right quadrants)” value (HepG-2 cells [6]; HepG-2, 5.0 µM) was 22.24%, the “percentage of total apoptotic cells (right quadrants)” value (HepG-2 cells [6]; HepG-2, 10.0 µM) was 27.24% and the “proportion of cells in the G2 phase” value (HepG-2 cells [7]; HepG-2, 5.0 µM) was 11.14%. The “proportion of cells in the G2 phase” value (HepG-2 cells [7]; HepG-2, 10.0 µM) was 0.41%, the “proportion of cells in the G2 phase” value (HepG-2 cells [7]; HepG-2, 20.0 µM) was 0.0% and the inhibition at 100 µM (MCF-7; Homo sapiens, MCF7) was 81.3%. For the same compound, the IC50 (MCF-7; Homo sapiens, MCF7) was 9.18 µM and the “Selectivity Index MCF-7” value (MCF-7; [8]) was >10.89.

In the case of `C[C@]12CC[C@H](O)CC1=CCC1C2CC[C@]2(C)C(=O)/C(=C/c3cccc(Cl)c3)CC12` (stereo partly drawn) [Compound D], the IC50 (KB) is given as 0.6 µM.

In the case of `CC12CCC3C(CC=C4CC(O)CCC43C)C1C/C(=C\c1cn(-c3ccc(Cl)cc3)nn1)C2=O` (stereo not drawn) [Compound 2g, (E)-16-((1-(4-chlorophenyl)-1H-1,2,3-triazol-4-yl)methylene)-3-hydroxy-10,13-dimethyl-1,3,4,7,8,9,10,11,12,13,15,16-dodecahydro-2H-cyclopenta[a]phenanthren-17(14H)-one], the inhibition at 100 µM ([3]; Homo sapiens, L02) is reported as 40.9%, the IC50 ([3]; Homo sapiens, L02) is reported as > 100 µM and the inhibition at 100 µM (HepG-2; Homo sapiens, HepG2) is reported as 32.5%. The IC50 (HepG-2; Homo sapiens, HepG2) was > 100 µM, the inhibition at 100 µM (A549 [4]; Homo sapiens, A549) was 69.8% and the IC50 (A549 [4]; Homo sapiens, A549) was 37.4 µM. For the same compound, the inhibition at 100 µM (BEL7402; Homo sapiens, Bel-7402) was 66.9%, the IC50 (BEL7402; Homo sapiens, Bel-7402) was 58.2 µM and the inhibition at 100 µM (HCT116 [5]; Homo sapiens, HCT-116) was 78.7%. For the same compound, the IC50 (HCT116 [5]; Homo sapiens, HCT-116) was 23.4 µM, the IC50 (Hela; Homo sapiens, HeLa) was 57.3 µM and the inhibition at 100 µM (Hela; Homo sapiens) was 62.8%. For the same compound, the inhibition at 100 µM (MCF-7; Homo sapiens, MCF7) was 39.9% and the IC50 (MCF-7; Homo sapiens, MCF7) was > 100 µM.

For `CC12CCC3C(CC=C4CC(O)CCC43C)C1C/C(=C\c1cn(-c3ccc(Br)cc3)nn1)C2=O` (stereo not drawn) [Compound 2k, (E)-16-((1-(4-bromophenyl)-1H-1,2,3-triazol-4-yl)methylene)-3-hydroxy-10,13-di-methyl-1,3,4,7,8,9,10,11,12,13,15,16-dodecahydro-2H-cyclopenta[a]phenan-thren-17(14H)-one], the “% Growth Inhibition at 100 μM L02” value [3] was 11.1%, the IC50 [3] was > 100 µM and the “% Growth Inhibition at 100 μM HepG-2” value (HepG-2) was 66.4%. For the same compound, the IC50 (HepG-2) was 37.1 µM, the “% Growth Inhibition at 100 μM A549” value (A549 [4]) was 47.8% and the IC50 (A549 [4]) was > 100 µM. The “% Growth Inhibition at 100 μM BEL7402” value (BEL7402) was “NA (NA: antiproliferative activity <5%)”, the IC50 (BEL7402) was > 100 µM and the “% Growth Inhibition at 100 μM HCT116” value (HCT116 [5]) was “NA (NA: antiproliferative activity <5%)”. The IC50 (HCT116 [5]) was > 100 µM, the “% Growth Inhibition at 100 μM Hela” value (Hela) was 30.7% and the IC50 (Hela) was > 100 µM. For the same compound, the “% Growth Inhibition at 100 μM MCF-7” value (MCF-7) was 45.5% and the IC50 (MCF-7) was > 100 µM.

In the case of `O=c1ccc2cc3ccoc3c(OCc3cn(-c4ccc(C(F)(F)F)cc4)nn3)c2o1` [Compound B], the IC50 (AGS) is given as 7.5 µM.

`C[C@]12CC[C@H](O)CC1=CC[C@@H]1[C@@H]2CC[C@]2(C)C(=O)CC[C@@H]12` [DHEA, Dehydroepiandrosterone] gave an inhibition at 100 µM ([3]; Homo sapiens, L02) of 44.6%, an inhibition at 100 µM (HepG-2; Homo sapiens, HepG2) of 10.9% and an inhibition at 100 µM (A549 [4]; Homo sapiens, A549) of 24.8%. For the same compound, the inhibition at 100 µM (BEL7402; Homo sapiens, Bel-7402) was 46.5%, the inhibition at 100 µM (HCT116 [5]; Homo sapiens, HCT-116) was 47.3% and the inhibition at 100 µM (Hela; Homo sapiens) was 15.7%. For the same compound, the inhibition at 100 µM (MCF-7; Homo sapiens, MCF7) was 17.1%.

For `CC12CCC3C(CC=C4CC(O)CCC43C)C1C/C(=C\c1cn(-c3ccccc3I)nn1)C2=O` (stereo not drawn) [Compound 2l, (E)-3-hydroxy-16-((1-(2-iodophenyl)-1H-1,2,3-triazol-4-yl)methylene)-10,13-dim-ethyl-1,3,4,7,8,9,10,11,12,13,15,16-dodecahydro-2H-cyclopenta[a]phenanthren-17(14H)-one], the “% Growth Inhibition at 100 μM L02” value [3] was “NA (NA: antiproliferative activity <5%)”, the “% Growth Inhibition at 100 μM HepG-2” value (HepG-2) was “NA (NA: antiproliferative activity <5%)” and the “% Growth Inhibition at 100 μM A549” value (A549 [4]) was “NA (NA: antiproliferative activity <5%)”. For the same compound, the “% Growth Inhibition at 100 μM BEL7402” value (BEL7402) was “NA (NA: antiproliferative activity <5%)”, the “% Growth Inhibition at 100 μM HCT116” value (HCT116 [5]) was “NA (NA: antiproliferative activity <5%)” and the “% Growth Inhibition at 100 μM Hela” value (Hela) was “NA (NA: antiproliferative activity <5%)”. The “% Growth Inhibition at 100 μM MCF-7” value (MCF-7) was “NA (NA: antiproliferative activity <5%)”.
